In article PMC5908295 (Oncotarget, 2018):

Experiments:
[1] = test system: EOL-1; assay: MTS viability assay, 72 h; conditions: Homo sapiens, EOL1, 72 h
Description: (§1) 15-25 ×10^3 of MV-4-11, MOLM-13, MOLM-14, MOLM-16, KG-1, Eol-1, SKM-1, PL-21, GDM-1, SKNO-1, RS4;11, Kasumi-3 and Kasumi-6 cells were seeded in 150 μL of culture medium onto individual wells in a 96 well plates, in triplicates. On the same day, 50 μL of medium containing tested inhibitor was added to the wells. Each compound was tested at 8 concentrations, in triplicates. As a negative control, the medium containing 0.1% DMSO was used. […] Staurosporine was used at 10 μM as a positive control. One the day of drug addition, basal signal from untreated cells was measured from in triplicate to determine time zero (T0). […] GI50 and LC50 values were extrapolated from a variable (four-parameter) dose-response curve fitted in GraphPad Prism.

[2] = test system: OCI-AML-3; assay: MTS viability assay, 72 h; conditions: Homo sapiens, OCI-AML-3, 72 h
Description: as §1

[3] = test system: KG-1; assay: MTS viability assay, 72 h; conditions: Homo sapiens, KG-1, 72 h
Description: as §1

[4] = test system: MV-4-11 xenograft; assay: MV-4-11 xenograft, SEL24-B489 and AraC alone or combined; type: in vivo, mice; conditions: MV-4-11, AraC alone 50 mg/kg three times weekly IP
Description: All animals were handled in strict accordance with good animal practice as defined by the relevant national and local animal welfare bodies. SCID and SCID/beige C.B-17 mice were provided by Harlan Laboratories or Charles River Laboratories, and were maintained in pathogen free conditions. For the xenograft experiments, age-matched (9-11 weeks old) females were used. 5×10^6 of MV-4-11 or MOLM-16 cells were suspended in a mixture (1:1, v:v) of PBS with Matrigel (BD Biosciences,) and injected subcutaneously (sc), in a total volume of 100 μL, above the groin on the right hind limb. For MOLM-13 and KG-1 cells, a mixture (3:1, v:v) of PBS and Matrigel HC (BD Bioscience,) was used to inject 5 × 10^6 of cell per mouse subcutaneously (sc), in a total volume of 100 μL. When tumors reached 100-130 mm^3, mice were randomized into uniform groups (6-9 mice per group) and subsequently administered the compound. […] At the end of the experiment, mice were anesthetized with isofluran and blood samples for total cell counts and biochemistry were obtained by retro-orbital bleeding. […] 5×10^6 cells suspended in a mixture (3:1, v:v) of PBS and Matrigel were injected as described above. […] Tumor volume was monitored every second day and calculated using the formula: TV = (a^2×b)/2, where “a” is the short axis in millimeters, and “b” is the long axis in millimeters. Body weight was assessed every day.

[5] = test system: KASUMI-3; assay: MTS viability assay, 72 h; conditions: Kasumi-3, 72 h
Description: as §1

[6] = test system: SIG-M5; assay: MTS viability assay, 72 h; conditions: Homo sapiens, SIG-M5, 72 h
Description: (§2) On the same day, 50 μL of medium containing tested inhibitor was added to the wells. Each compound was tested at 8 concentrations, in triplicates. As a negative control, the medium containing 0.1% DMSO was used. […] Staurosporine was used at 10 μM as a positive control. One the day of drug addition, basal signal from untreated cells was measured from in triplicate to determine time zero (T0). […] GI50 and LC50 values were extrapolated from a variable (four-parameter) dose-response curve fitted in GraphPad Prism.

[7] = test system: OCI-AML-2; assay: MTS viability assay, 72 h; conditions: Homo sapiens, OCI-AML2, 72 h
Description: as §2

[8] = test system: PL-21; assay: MTS viability assay, 72 h; conditions: PL-21, 72 h
Description: as §1

[9] = Total blood cell counts in mice with MV-4-11 tumors; conditions: Cytarabine 50 mg/kg, treatment day 15
Description: All animals were handled in strict accordance with good animal practice as defined by the relevant national and local animal welfare bodies. SCID and SCID/beige C.B-17 mice were provided by Harlan Laboratories or Charles River Laboratories, and were maintained in pathogen free conditions. For the xenograft experiments, age-matched (9-11 weeks old) females were used. 5×10^6 of MV-4-11 or MOLM-16 cells were suspended in a mixture (1:1, v:v) of PBS with Matrigel (BD Biosciences,) and injected subcutaneously (sc), in a total volume of 100 μL, above the groin on the right hind limb. For MOLM-13 and KG-1 cells, a mixture (3:1, v:v) of PBS and Matrigel HC (BD Bioscience,) was used to inject 5 × 10^6 of cell per mouse subcutaneously (sc), in a total volume of 100 μL. When tumors reached 100-130 mm^3, mice were randomized into uniform groups (6-9 mice per group) and subsequently administered the compound. […] At the end of the experiment, mice were anesthetized with isofluran and blood samples for total cell counts and biochemistry were obtained by retro-orbital bleeding. […] 5×10^6 cells suspended in a mixture (3:1, v:v) of PBS and Matrigel were injected as described above. When the tumor volume reached ~120 mm^3, mice were randomized into uniform groups (5 mice per group) and the compound then administered. […] Tumor volume was monitored every second day and calculated using the formula: TV = (a^2×b)/2, where “a” is the short axis in millimeters, and “b” is the long axis in millimeters. Body weight was assessed every day. […]
Supplementary Table 10: Related to Figure 5C. […] The assessment total
performed on treatment day 15.
RBC – red blood cells, HGB – hemoglobin, HCT – hematocrit, WBC – white blood cells, LYMPH – lymphocytes, MONO
– monocytes, GRA – granulocytes, PLT – platelet, MPV – mean platelet volume.

[10] = test system: SKM-1; assay: MTS viability assay, 72 h; conditions: Homo sapiens, SKM-1, 72 h
Description: as §2

[11] = test system: MV-4-11; assay: MTS viability assay, 72 h; conditions: Homo sapiens, MV4-11, 72 h
Description: as §2

[12] = test system: MOLM-13; assay: MTS viability assay, 72 h; conditions: Homo sapiens, MOLM-13, 72 h
Description: as §1

[13] = test system: GDM-1; assay: MTS viability assay, 72 h; conditions: Homo sapiens, GDM-1, 72 h
Description: as §1

[14] = test system: MOLM-16; assay: MTS viability assay, 72 h; conditions: MOLM16, 72 h
Description: as §2

[15] = test system: RS4;11; assay: MTS viability assay, 72 h; conditions: Homo sapiens, RS4-11, 72 h
Description: as §1

[16] = test system: MOLM-14; assay: MTS viability assay, 72 h; conditions: Homo sapiens, MOLM-14, 72 h
Description: as §1

[17] = test system: MOLM-6; assay: MTS viability assay, 72 h; conditions: 72 h
Description: as §1

[18] = Blood biochemistry in mice with MV-4-11 tumors; type: in vivo; conditions: Cytarabine 50 mg/kg, treatment day 15
Description: All animals were handled in strict accordance with good animal practice as defined by the relevant national and local animal welfare bodies. SCID and SCID/beige C.B-17 mice were provided by Harlan Laboratories or Charles River Laboratories, and were maintained in pathogen free conditions. For the xenograft experiments, age-matched (9-11 weeks old) females were used. 5×10^6 of MV-4-11 or MOLM-16 cells were suspended in a mixture (1:1, v:v) of PBS with Matrigel (BD Biosciences,) and injected subcutaneously (sc), in a total volume of 100 μL, above the groin on the right hind limb. For MOLM-13 and KG-1 cells, a mixture (3:1, v:v) of PBS and Matrigel HC (BD Bioscience,) was used to inject 5 × 10^6 of cell per mouse subcutaneously (sc), in a total volume of 100 μL. When tumors reached 100-130 mm^3, mice were randomized into uniform groups (6-9 mice per group) and subsequently administered the compound. […] At the end of the experiment, mice were anesthetized with isofluran and blood samples for total cell counts and biochemistry were obtained by retro-orbital bleeding. […] 5×10^6 cells suspended in a mixture (3:1, v:v) of PBS and Matrigel were injected as described above. When the tumor volume reached ~120 mm^3, mice were randomized into uniform groups (5 mice per group) and the compound then administered. […] Tumor volume was monitored every second day and calculated using the formula: TV = (a^2×b)/2, where “a” is the short axis in millimeters, and “b” is the long axis in millimeters. Body weight was assessed every day.
Supplementary Table 9: Related to Figure 5C. […] The assessment of
was performed on treatment day 15.
AST – Aspartate aminotransferase, ALT – Alanine transaminase, ALP – alkaline phosphatase, UREA – blood urea nitrogen,
CREA – Creatinine, CK – Creatine kinase, TP- total protein; ALB – Albumin. […]

[19] = test system: KASUMI-6; assay: MTS viability assay, 72 h; conditions: 72 h
Description: as §1

[20] = test system: SKNO-1; assay: MTS viability assay, 72 h; conditions: SKNO-1, 72 h
Description: as §1

[21] = parameters: method as in PMID 21628411, PMID 24953177; conditions: off-target inhibition of the potassium channel hERG; cited from earlier work

With Nc1ccn([C@@H]2O[C@H](CO)[C@@H](O)[C@@H]2O)c(=O)n1 [Cytarabine] the GI50 [1] was 0.024 µM, the GI50 [2] was 0.081 µM and the CC50 ([2]; read-out: LC50) was over 10 µM. The GI50 [3] was 0.012 µM, the CC50 ([3]; read-out: LC50) was 0.071 µM and the “decrease of tumor growth” value [4] was 66%. It also gave a GI50 [5] of under 0.005 µM, a CC50 ([5]; read-out: LC50) of 0.028 µM and a GI50 [6] of 0.046 µM. For the same compound, the CC50 ([6]; read-out: LC50) was over 10 µM, the GI50 [7] was under 0.005 µM and the CC50 ([7]; read-out: LC50) was 0.021 µM. For the same compound, the GI50 [8] was under 0.005 µM, the GRA [9] was 51.9% and the HCT [9] was 49.5%. For the same compound, the HGB [9] was 14.4 g/dL, the LYMPH [9] was 37.7% and the MONO [9] was 10.3%. The MPV [9] was 5.9 μm3, the PLT [9] was 1098 103/mm3 and the RBC [9] was 9.9 106/mm3. For the same compound, the WBC [9] was 5.0 103/mm3, the GI50 [10] was 0.028 µM and the CC50 ([10]; read-out: LC50) was 6.46 µM. It also gave a GI50 [11] of 0.34 µM, a CC50 ([11]; read-out: LC50) of over 10 µM and a GI50 [12] of under 0.005 µM. The CC50 ([12]; read-out: LC50) was over 10 µM, the GI50 [13] was under 0.005 µM and the GI50 [14] was 0.022 µM. For the same compound, the CC50 ([14]; read-out: LC50) was over 10 µM, the GI50 [15] was under 0.005 µM and the CC50 ([15]; read-out: LC50) was 0.023 µM. The GI50 [16] was 0.048 µM, the CC50 ([16]; read-out: LC50) was over 10 µM and the GI50 [17] was 0.03 µM. It also gave a CC50 ([17]; read-out: LC50) of over 10 µM, an ALB [18] of 4.6 g/dL and an ALP [18] of 87.6 U/L. The ALT [18] was 153.7 U/L, the AST [18] was 247.1 U/L and the CK [18] was 1709 U/L. It also gave a CREA [18] of 0.37 mg/dL, a K [18] of 5.4 mM and a TP [18] of 4.6 g/dL. It also gave a UREA [18] of 5.9 mmol/L, a GI50 [19] of under 0.005 µM and a GI50 [20] of under 0.005 µM.
For CN1CCC(CNc2ccc3ncc(-c4cccc(OC(F)(F)F)c4)n3n2)CC1 [SGI-1776], the “outcome of clinical testing” value [21] is given as “failed clinical testing due to a narrow therapeutic window and cardiac toxicity”.
